Data taken from patent US10000791B2, “Measurement method for human pancreatic lipase activity” (ASAHI KASEI PHARMA CORPORATION, priority 2013, dated 2018).

Molecular target: T1, human pancreatic lipase (Homo sapiens, UniProt P16233)
T1 construct: As a sample, pooled serum or a control sample (a control containing a pancreatic lipase) was used; from tissue; host or cells: human serum (pooled serum, normal samples, heparin-administered samples) and control sera
T1 sequence (P16233 17-465): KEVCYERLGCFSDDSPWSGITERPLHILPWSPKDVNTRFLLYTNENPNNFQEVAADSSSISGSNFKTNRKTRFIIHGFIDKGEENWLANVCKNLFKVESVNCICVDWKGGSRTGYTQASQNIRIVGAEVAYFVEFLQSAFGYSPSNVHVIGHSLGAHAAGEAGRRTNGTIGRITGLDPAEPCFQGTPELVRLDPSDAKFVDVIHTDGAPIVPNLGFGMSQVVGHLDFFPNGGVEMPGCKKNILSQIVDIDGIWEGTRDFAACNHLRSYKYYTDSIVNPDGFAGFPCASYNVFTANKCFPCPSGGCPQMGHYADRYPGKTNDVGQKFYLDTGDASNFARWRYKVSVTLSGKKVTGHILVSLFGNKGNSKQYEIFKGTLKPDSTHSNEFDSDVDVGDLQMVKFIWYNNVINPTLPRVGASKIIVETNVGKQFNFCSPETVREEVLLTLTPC
Experiment: lipase activity measured in control, normal and heparin-administered samples with each reagent (1,2-dioleoyl glycerol, UV method; Liquitech Lipase Color II for verification)
Format: biochemical
Conditions: Recombinant pancreatic lp-containing serum
Protocol: A mixture of the substrate stock solution and the R-1 in a proportion of 1:2 was used as a first reagent. The R-2 was directly used as a second reagent. As a sample, pooled serum or a control sample (a control containing a pancreatic lipase) was used. A proportion in amount among the sample, the first reagent and the second reagent was set as sample:first reagent:second reagent of 0.01 ml:0.18 ml:0.06 ml. The sample was added to the first reagent, the resultant mixture was heated at 37° C. for 5 minutes, the second reagent was added thereto, and a change rate of an absorbance at 340 nm based on reduced NADP was obtained at 37° C. from 3 minutes after the addition of the second reagent to 4 minutes after the addition, and then, the lipase activity was calculated by using a molecular extinction coefficient of 6300 L/mol·cm of the reduced NADP. Besides, as a sample blank, saline was used instead of a sample, an absorbance was measured by using the reagent for sample blank obtained by removing MGLPII from the second reagent, and a difference between the thus measured two values was defined as an enzyme activity value. For the measurement, Hitachi automatic analyzer Model H7170 or H7080 was used.
Similarly to Example 1, a mixture of the substrate stock solution and the R-1 in a proportion of 1:2 was used as a first reagent. Except for this, the measurement was performed in the same manner as in Example 1.
A commercially available reagent for a resorufin colorimetric method, “Liquitech Lipase Color II” manufactured by Roche Diagnostics using 1,2-O-dilauryl-rac-glycerol-3-glutaric acid-(6-methylresorufin)ester (DGGR), which is regarded not to be influenced by a non-pancreatic lipase, such as a lipoprotein lipase or a hepatic lipase, appearing in blood due to administration of heparin, was used for verifying the effect of the present example. “Liquitech Lipase Color II” was used in accordance with the package insert, and a special calibrator was used for calculating the enzyme activity. […] The concentration of each bile acid used in the present example was set to be the same as that in the comparative example.
As samples, a control, non-heparin-administered samples (normal samples), and heparin-administered samples were used.
The compositions of the reagents were the same as those of Example 2. As a comparative example, NaDCA (in a concentration of 40 mmol/L in the R-1) was used as the bile acid, and the reaction solution was adjusted to pH 8.15 (by the Bicine buffer) for measuring a heparin-administered sample.
It is noted that CRM-001b containing a human pancreatic recombinant lipase dissolved not in distilled water but in a pooled serum was used as the calibrator to calculate the lipase activity.
As a bile acid of the present example and a reference example, NaTDCA was selected, and the pH dependence with the pH of a reaction solution changed in a range of 6.2 to 7.6 was examined. It is noted that a case of pH 7.6 was used as the reference example. An MES buffer was used for adjusting pH to 6.2 and 6.4, and the BES buffer was used for adjusting the other pHs. As samples, (six) control samples (controls each containing a pancreatic lipase) and (nine) heparin-administered samples were used. As a comparative example, NaDCA (in a concentration of 40 mmol/L in the R-1) was used as the bile acid, and a reaction solution having pH 8.15 (the Bicine buffer) was used. Besides, “Liquitech Lipase Color II” manufactured by Roche Diagnostics was used for verifying the effect of the present example.

What does the source list for `C[C@H](CCC(=O)NCCS(=O)(=O)[O-])[C@H]1CC[C@H]2[C@@H]3CC[C@@H]4C[C@H](O)CC[C@]4(C)[C@H]3C[C@H](O)[C@]12C.[Na+]` [NaTDCA, sodium taurodeoxycholate]?
lipase activity (Table 3) (pH 6.2): 180.8 U/L; lipase activity (Table 3) (pH 6.4): 184.7 U/L; lipase activity (Table 3) (pH 6.6): 211.9 U/L; lipase activity (Table 3) (pH 6.9): 233.1 U/L; lipase activity (Table 3) (pH 7.2): 229.8 U/L; lipase activity (Table 3) (pH 7.4): 217.3 U/L; lipase activity (Table 3) (pH 7.6): 168.8 U/L

What does the source list for `C[C@H](CCC(=O)NCC(=O)[O-])[C@H]1CC[C@H]2[C@@H]3[C@H](O)C[C@@H]4C[C@H](O)CC[C@]4(C)[C@H]3CC[C@]12C.[Na+]` [NaGCDCA, sodium glycochenodeoxycholate]?
lipase activity (Table 5) (pH 7.0): 166.1 U/L; lipase activity (Table 5) (pH 7.95): 72.4 U/L
